Experimental data reported in patent publication US20120027720A1, “PEPTIDE CONJUGATES” (priority 2008, published 2012).
Where no end group is shown, it is not given here. [ ]: non-standard residue; d: D form.

What was measured:
Assay type in all cases: cell-based
IEC6 cells = assay: Real-Time Cell Electronic Sensing (RT-CES, ACEA) assay of cell morphology change; set-up: key: + indicates an enhancement of the permeability of the tight junctions were observed; − indicates no enhancement of permeability was observed; conditions: peptide at 5 mg/mL
Excerpt: Agonists of tight junctions can be identified by their ability to induce changes in morphology of cells in a monolayer of cells that comprise tight junctions. Such changes in the morphology of IEC6 cells may be measured using a Real-Time Cell Electronic Sensing protocol as described below.
Tight junction agonists can be identified using the following method an used in peptide conjugates of the invention:
Materials: cells: IEC6 passage 30-50, medium: DMEM 10% no calcium no magnesium, foetal bovine serum 0.1 unit per ml bovine insulin, buffers: phosphate buffered saline (PBS) no calcium no magnesium, trypsin: 0.25% porcine trypsin in HBSS no calcium no magnesium, flasks: 100×20 mm Tissue culture dish Falcon, plates: 16× E-Plate, machine: RT-CES™ 16× system (ACEA Biosciences, Inc., San Diego, Calif.)
Wash a 75 cm^2 flask of confluent IEC6 cells twice with 25 ml of PBS.
Add 2.5 ml of trypsin to the flask and place back in the incubator at 37° C.
Wash cells from the surface of the flask with 10 ml of serum containing media to quench the trypsin.
Pellet the cells by centrifugation at 1500 rpm for 5 minutes aspirate the media.
Resuspend the cell pellet in 10 ml of serum free media and centrifuge at 1500 rpm for 5 minutes aspirate the media and repeat for a total of 5 washes.
Take 100 μl of cells and mix with 100 μl of trypan blue.
Count the cells four times and use the average cell concentration.
Dilute the cells to 1×10^6 per ml in serum free media.
Add 100 μl of serum free media to each well of the ACEA plates to be used.
Insert the ACEA plate and press scan.
Run step 1 of the program to measure background.
Add 50 μl of cells to each well of the ACEA plate tap each slide of the plate 10 times and place the cells on the bench for 15 minutes to allow the cells to settle.
Insert the ACEA plate and run the scan step to check connections and run step 2-1 and 2-2 overnight.
Step 2-1 sample every 2 minutes 30 times.
Step 2-2 sample every 15 minutes 100 times.
The cell indices should be between 6-10 after the overnight run and should have reached a plateau.
Remove 100 μl of media carefully from each well.
Make up the compounds to be tested so that 50 μl contains 2× the desired final concentration.
Add 50 μl of compounds to the designated wells.
Scan the plate to check connections.
Step 3-1 sample every 2 minutes 30 times.
Step 3-2 sample every 15 minutes 100 times.

CaCo2 monolayers [1] = assay: Trans Epithelial Electric Resistance (TEER) across cell monolayer; set-up: key to Reduced TEER: + indicates an enhancement of the permeability of the tight junctions were observed; − indicates no enhancement of permeability was observed; conditions: Caco-2 monolayer
How it was run: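 Caco-2 cells, passage 40-60, grown 21-28 days on Transwell filters, equilibrated 30 min at 37° C in MHBSS pH 7.4. Test compound with Lucifer Yellow applied apically (n=3), incubated at 37° C with 50 RPM shaking; TEER measured at baseline and at 30, 60, 120 and 180 min.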

CaCo2 monolayers [2] = assay: Epithelial flux of Lucifer Yellow through cell monolayer; set-up: key to Enhanced LY permeability: + indicates an enhancement of the permeability of the tight junctions were observed; − indicates no enhancement of permeability was observed; conditions: Lucifer Yellow flux, Caco-2 monolayer
How it was run: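 Caco-2 cells (passage 40-60) grown 21-28 days on Transwell filters, equilibrated 30 min at 37 °C in HBSS-HEPES pH 7.4; Lucifer Yellow with test compound applied apically, n=3 filters. Basolateral samples at 60, 120, 180 min read by fluorescence at 485/535 nm against standard curve; TEER also measured.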

Substance | ACEA 5 mg/mL (IEC6 cells) | Reduced TEER (CaCo2 monolayers [1]) | Enhanced LY permeability (CaCo2 monolayers [2])
18 ([dL][dR]G[dI][dC]F; not fully specified; printed as D-Leu-D-Arg-Gly-D-Ile-D-Cys-Phe) [compound 18] | + | + | +
2 (ACIGRL; not fully specified; printed as Ala-Cys-Ile-Gly-Arg-Leu) [compound 2] | + | − | −
19 ([dL][dR]G[dI]C[dF]; not fully specified; printed as D-Leu-D-Arg-Gly-D-Ile-Cys-D-Phe) [compound 19] | + | + | +
6 (FCIGAL; not fully specified; printed as Phe-Cys-Ile-Gly-Ala-Leu) [compound 6] | + | − | −
